According to US12012622B1, “Paenibacillus pabuli-derived enzyme capable of producing galacto-oligosaccharide, and method for producing galacto-oligosaccharide” (GODO SHUSEI CO., LTD., priority 2018, dated 2024):
Marks after values point to notes of the source that are not given here.

What was measured:
[1] = system: Paenibacillus pabuli lactase (enzyme of Example 1, SEQ ID NO: 1); assay: Analysis of reaction rate parameter with ONPG as substrate (Validation 1); type: biochemical; conditions: substrate ONPG 0.075 to 7.5 mM; 40° C., 10 minutes; 100 mM sodium phosphate (pH 6.5)
Description: After the production of each enzyme, the transformant was ultrasonically disrupted to give a cell disruption liquid. […] The prepared cell disruption liquids were each ultra-filtered as necessary to concentrate the enzyme. The concentrated disruption liquid of the enzyme consisting of an amino acid sequence set forth in SEQ ID NO: 1 was defined as Example 1, and the concentrated disruption liquid of the enzyme consisting of an amino acid sequence set forth in SEQ ID NO: 2 was defined as Example 2.
The reaction rate parameter when using the ONPG of the enzyme of Example 1 as the substrate was determined by the following method. The specific activity (μmol/mg protein/min) upon reaction at a substrate concentration of 0.075 to 7.5 mM at 40° C. for 10 minutes was calculated, and the specific activity was plotted to each substrate concentration. At this time, 100 mM sodium phosphate (pH 6.5) was used as the buffer. From the substrate saturation curve measured by the above method, following the Michaelis-Menten equation, Km (Michaelis-Menten constant), which indicates the affinity between the enzyme and the substrate, and V. (maximum velocity), which indicates how many micromoles of substrate is catalyzed in 1 minute per mg of the enzyme, were calculated.

[2] = system: Bacillus circulans lactase β-galII (main enzyme of BIOLACTA); conditions: substrate ONPG; cited from Non-Patent Literature 1; cited from earlier work

O=[N+]([O-])c1ccccc1O[C@@H]1O[C@H](CO)[C@H](O)[C@H](O)[C@H]1O [ONPG, o-nitrophenyl-β-galactopyranoside]
Km [1]: 0.36 mM | Vmax [1]: 55.0 units/mg protein | Km [2]: 10 mM | Vmax [2]: 56.0* units/mg protein
